The record followed here is patent publication US20160046618A1, “Cyclopropyl Fused Thiazin-2-Amine Compounds as Beta-Secretase Inhibitors and Methods of Use” (AMGEN INC., priority 2014, published 2016).

In one assay the target is human recombinant BACE1 (Homo sapiens (Human), UniProt P56817). The assay is described as follows: In vitro enzymatic BACE1 FRET assay. In kind it is biochemical. The following applies: read-out: IC50 IP (μM) BACE1 enzyme. An outline of the steps: (§1)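 Tris addition raises the pH to neutral to stop the reaction before fluorescence is measured at 590 nm emission with 488 nm excitation.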
Chain of human recombinant BACE1 (P56817 46-501): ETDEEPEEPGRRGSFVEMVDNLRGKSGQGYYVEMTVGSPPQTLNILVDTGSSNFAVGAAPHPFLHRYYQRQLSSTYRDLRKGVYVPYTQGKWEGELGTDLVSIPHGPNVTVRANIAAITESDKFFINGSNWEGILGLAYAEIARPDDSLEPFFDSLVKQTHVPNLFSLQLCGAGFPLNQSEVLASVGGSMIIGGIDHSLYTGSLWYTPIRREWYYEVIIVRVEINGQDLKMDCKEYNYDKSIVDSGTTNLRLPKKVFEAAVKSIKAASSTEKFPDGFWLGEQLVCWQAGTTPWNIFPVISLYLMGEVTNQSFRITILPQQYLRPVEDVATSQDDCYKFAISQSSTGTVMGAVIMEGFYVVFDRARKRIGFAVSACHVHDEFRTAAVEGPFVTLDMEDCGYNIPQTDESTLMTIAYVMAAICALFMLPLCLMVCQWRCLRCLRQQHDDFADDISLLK

A further assay concerns the target human recombinant BACE2 (Homo sapiens (Human), UniProt Q9Y5Z0). The assay is described as follows: In vitro enzymatic BACE2 FRET assay. In kind it is biochemical. The following applies: read-out: IC50 IP (μM) BACE2 enzyme. An outline of the steps: as §1
Assay [1] relates to Aβ40 in conditioned medium of cells stably expressing Amyloid Precursor Protein (APP). The assay can be described thus: In vitro BACE-1 cell-based assay (Aβ40 sandwich ELISA). Particulars: read-out: IC50 IP (μM) BACE1 cell. An outline of the steps: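 Read-out: time-resolved fluorescence (Streptavidin-Europium) of Aβ40 captured by pAb40 and detected with biotinylated 6E10 from supernatants of APP-stable cells. Cells were exposed to compound for 24 h, 10-point dose response, top dose 100 μM or 10 μM, 0.1% DMSO. IC50 fitted to percent of control.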
For orientation: ELISA stands for enzyme-linked immunosorbent assay.

In a further assay the target is Recombinant Cat D (Homo sapiens (Human), UniProt P07339). The assay is described as follows: In vitro enzymatic Cathepsin D (Cat D) FRET assay. In kind it is biochemical. The following applies: read-out: IC50 IP (μM) CatD. An outline of the steps:
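Human Cat D expressed in CHO cells was incubated for one hour in 0.05 M citrate pH 3.5, 5 mM CHAPS, 10% DMSO final, with 20 nM quenched FRET peptide substrate. Reactions were stopped with Tris buffer raising pH to neutrality. Cleavage was read as fluorescence at excitation 500 nm, emission 580 nm.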

Chain of human recombinant BACE2 (Q9Y5Z0 63-518): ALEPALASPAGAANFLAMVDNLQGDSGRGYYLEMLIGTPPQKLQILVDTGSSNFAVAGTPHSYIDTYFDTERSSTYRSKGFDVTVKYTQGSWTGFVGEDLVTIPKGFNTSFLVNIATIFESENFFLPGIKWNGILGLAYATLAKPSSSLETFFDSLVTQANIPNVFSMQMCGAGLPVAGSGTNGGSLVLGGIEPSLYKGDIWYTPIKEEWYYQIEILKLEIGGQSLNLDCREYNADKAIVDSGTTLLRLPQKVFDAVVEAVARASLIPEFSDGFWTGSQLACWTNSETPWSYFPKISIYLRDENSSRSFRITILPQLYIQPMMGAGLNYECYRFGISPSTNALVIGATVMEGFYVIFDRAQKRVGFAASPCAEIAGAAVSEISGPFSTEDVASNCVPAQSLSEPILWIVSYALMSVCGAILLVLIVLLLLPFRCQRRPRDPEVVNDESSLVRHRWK
Chain of Recombinant Cat D (P07339 65-412): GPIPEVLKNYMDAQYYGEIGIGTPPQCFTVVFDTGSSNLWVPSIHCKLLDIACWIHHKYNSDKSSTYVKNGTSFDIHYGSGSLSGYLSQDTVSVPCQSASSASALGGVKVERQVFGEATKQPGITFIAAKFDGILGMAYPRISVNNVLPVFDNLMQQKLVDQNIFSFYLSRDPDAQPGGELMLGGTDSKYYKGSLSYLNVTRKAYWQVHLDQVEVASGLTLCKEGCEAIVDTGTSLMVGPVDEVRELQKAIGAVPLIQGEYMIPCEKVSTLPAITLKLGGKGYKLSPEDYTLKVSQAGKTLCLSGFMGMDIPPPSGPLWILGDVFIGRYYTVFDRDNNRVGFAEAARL

Turning to `COC[C@]12C[C@H]1[C@@](C)(c1cc(NC(=O)c3ncc(OCC(F)(F)F)cc3C)cc(F)c1F)N=C(N)S2` [Example 675, N-(3-((1S,5S,6S)-3-amino-1-(methoxymethyl)-5-methyl-2-thia-4-azabicyclo[4.1.0]hept-3-en-5-yl)-4,5-difluorophenyl)-3-methyl-5-(2,2,2-trifluoroethoxy)-2-pyridinecarboxamide], the IC50 (commonly the concentration that inhibits the measured activity by half) at human recombinant BACE1 was 0.0124 µM; at human recombinant BACE2 it was 0.703 µM; in assay [1] it was 0.0519 µM; at Recombinant Cat D it was 1010 µM.

Consider `C#CCOc1cnc2c(Nc3cnc(F)c([C@@]4(C)N=C(N)S[C@@]5([C@H](OC)C(F)(F)F)C[C@H]54)c3)nccc2n1` [Example 676, N-(5-((1S,5S,6S)-3-amino-5-methyl-1-((1R)-2,2,2-trifluoro-1-methoxyethyl)-2-thia-4-azabicyclo[4.1.0]hept-3-en-5-yl)-6-fluoro-3-pyridinyl)-2-(2-propyn-1-yloxy)pyrido[3,4-b]pyrazin-5-amine], for which the IC50 amounted to 0.00155 µM on human recombinant BACE1, 0.0157 µM at human recombinant BACE2, 0.0033 µM in assay [1] and 337 µM at Recombinant Cat D.

`C#CCOc1cnc2c(Nc3cnc(F)c([C@@]4(C)N=C(N)S[C@@]5([C@@H](OC)C(F)(F)F)C[C@H]54)c3)nccc2n1` [Example 677, N-(5-((1S,5S,6S)-3-amino-5-methyl-1-((1S)-2,2,2-trifluoro-1-methoxyethyl)-2-thia-4-azabicyclo[4.1.0]hept-3-en-5-yl)-6-fluoro-3-pyridinyl)-2-(2-propyn-1-yloxy)pyrido[3,4-b]pyrazin-5-amine]: the IC50 at human recombinant BACE1 turned out to be 0.0016 µM; at human recombinant BACE2, 0.00948 µM; in assay [1] it was 0.00305 µM; at Recombinant Cat D it was 306 µM.

Consider `COC[C@]12C[C@H]1[C@@](C)(c1cc(NC(=O)c3ncc(OCC(F)(F)F)cc3C)ccc1F)N=C(N)S2` [Example 681, N-(3-((1S,5S,6S)-3-amino-1-(methoxymethyl)-5-methyl-2-thia-4-azabicyclo[4.1.0]hept-3-en-5-yl)-4-fluorophenyl)-3-methyl-5-(2,2,2-trifluoroethoxy)-2-pyridinecarboxamide], for which the half-maximal inhibitory concentration (IC50) on human recombinant BACE1 stood at 0.0109 µM; on human recombinant BACE2, 0.789 µM; in assay [1], 0.0555 µM; on Recombinant Cat D it was 1450 µM.

As to `C#CCOc1cnc(C(=O)Nc2ccc(F)c([C@@]3(C)N=C(N)S[C@@]4(COC)C[C@H]43)c2)c(C)c1` [Example 683, N-(3-((1S,5S,6S)-3-amino-1-(methoxymethyl)-5-methyl-2-thia-4-azabicyclo[4.1.0]hept-3-en-5-yl)-4-fluorophenyl)-3-methyl-5-(2-propyn-1-yloxy)-2-pyridinecarboxamide], the IC50 on human recombinant BACE1 worked out at 0.00391 µM; at human recombinant BACE2, 0.0267 µM; in assay [1], 0.008 µM; on Recombinant Cat D, 2100 µM.

Take `C#CCOc1cnc(C(=O)Nc2cc(F)c(F)c([C@@]3(C)N=C(N)S[C@@]4(CF)C[C@H]43)c2)c(C)c1` [Example 684, N-(3-((1S,5S,6S)-3-amino-1-(fluoromethyl)-5-methyl-2-thia-4-azabicyclo[4.1.0]hept-3-en-5-yl)-4,5-difluorophenyl)-3-methyl-5-(2-propyn-1-yloxy)-2-pyridinecarboxamide]: the IC50 on human recombinant BACE1 worked out at 0.00146 µM; at human recombinant BACE2, 0.0332 µM; in assay [1], 0.00684 µM; at Recombinant Cat D, 1040 µM.

Consider `C#CCOc1cnc(C(=O)Nc2cc(F)c(F)c([C@@]3(C)N=C(N)S[C@@]4(C(F)F)C[C@@H]34)c2)c(C)c1` [Example 685, N-(3-((1S,5S,6S)-3-amino-1-(difluoromethyl)-5-methyl-2-thia-4-azabicyclo[4.1.0]hept-3-en-5-yl)-4,5-difluorophenyl)-3-methyl-5-(2-propyn-1-yloxy)-2-pyridinecarboxamide], for which the IC50 at human recombinant BACE1 was determined as 0.00112 µM; on human recombinant BACE2, 0.018 µM; in assay [1], 0.0197 µM; at Recombinant Cat D, 463 µM.

In the case of `C#CCOc1cnc(C(=O)Nc2ccc(F)c([C@@]3(C)N=C(N)S[C@@]4(C(F)F)C[C@@H]34)c2)c(C)c1` [Example 686, N-(3-((1S,5S,6S)-3-amino-1-(difluoromethyl)-5-methyl-2-thia-4-azabicyclo[4.1.0]hept-3-en-5-yl)-4-fluorophenyl)-3-methyl-5-(2-propyn-1-yloxy)-2-pyridinecarboxamide], the IC50 worked out at 0.00167 µM on human recombinant BACE1, 0.0221 µM on human recombinant BACE2, 0.00967 µM in assay [1] and 496 µM on Recombinant Cat D.

For `COC[C@]12C[C@H]1[C@@](C)(c1cc(NC(=O)c3ncc(O[C@@H](C)c4ncco4)cc3C)cc(F)c1F)N=C(N)S2` [Example 687, N-(3-((1S,5S,6S)-3-amino-1-(methoxymethyl)-5-methyl-2-thia-4-azabicyclo[4.1.0]hept-3-en-5-yl)-4,5-difluorophenyl)-3-methyl-5-((1S)-1-(1,3-oxazol-2-yl)ethoxy)-2-pyridinecarboxamide], the IC50 was 0.117 µM at human recombinant BACE1, 2.52 µM on human recombinant BACE2, 0.569 µM in assay [1] and greater than 400 µM on Recombinant Cat D.

Turning to `COC[C@]12C[C@H]1[C@@](C)(c1cc(NC(=O)c3ncc(O[C@H](C)c4ncco4)cc3C)cc(F)c1F)N=C(N)S2` [Example 688], the IC50 is 0.548 µM at human recombinant BACE1, 0.709 µM at human recombinant BACE2, 3.89 µM in assay [1] and 1320 µM on Recombinant Cat D.

Take `C#CCOc1cnc(C(=O)Nc2ccc(F)c([C@@]3(C)N=C(N)S[C@@]4(CF)C[C@H]43)c2)c(C)c1` [Example 690, N-(3-((1S,5S,6S)-3-amino-1-(fluoromethyl)-5-methyl-2-thia-4-azabicyclo[4.1.0]hept-3-en-5-yl)-4-fluorophenyl)-3-methyl-5-(2-propyn-1-yloxy)-2-pyridinecarboxamide]: the IC50 amounted to 0.00418 µM on human recombinant BACE1, 0.026 µM at human recombinant BACE2, 0.00779 µM in assay [1] and 675 µM at Recombinant Cat D.

Turning to `C#CCOc1cnc(C(=O)Nc2cc(F)c(F)c([C@@]3(C)N=C(N)S[C@@]4(CF)C[C@H]43)c2)c(Cl)c1` [Example 691, N-(3-((1S,5S,6S)-3-amino-1-(fluoromethyl)-5-methyl-2-thia-4-azabicyclo[4.1.0]hept-3-en-5-yl)-4,5-difluorophenyl)-3-chloro-5-(2-propyn-1-yloxy)-2-pyridinecarboxamide], the IC50 at human recombinant BACE1 came out at 0.000673 µM; at human recombinant BACE2, 0.0231 µM; in assay [1], 0.00563 µM; at Recombinant Cat D, 728 µM.

Turning to `C[C@]1(c2cc(NC(=O)c3ccc(OCC(F)(F)F)cn3)cc(F)c2F)N=C(N)S[C@@]2(CF)C[C@H]21` [Example 692, N-(3-((1S,5S,6S)-3-amino-1-(fluoromethyl)-5-methyl-2-thia-4-azabicyclo[4.1.0]hept-3-en-5-yl)-4,5-difluorophenyl)-5-(2,2,2-trifluoroethoxy)-2-pyridinecarboxamide], the IC50 at human recombinant BACE1 is 0.0053 µM; at human recombinant BACE2, 0.29 µM; in assay [1], 0.0453 µM; on Recombinant Cat D it was greater than 400 µM.

Regarding `C[C@]1(c2cc(NC(=O)c3ncc(OCC(F)(F)F)cc3Cl)cc(F)c2F)N=C(N)S[C@@]2(CF)C[C@H]21` [Example 693, N-(3-((1S,5S,6S)-3-amino-1-(fluoromethyl)-5-methyl-2-thia-4-azabicyclo[4.1.0]hept-3-en-5-yl)-4,5-difluorophenyl)-3-chloro-5-(2,2,2-trifluoroethoxy)-2-pyridinecarboxamide], the IC50 at human recombinant BACE1 was 0.00294 µM; at human recombinant BACE2, 0.246 µM; in assay [1] it was 0.0489 µM; on Recombinant Cat D it was 1200 µM.

Turning to `C[C@]1(c2cc(NC(=O)c3ccc(OCC(F)(F)F)cn3)cc(F)c2F)N=C(N)S[C@@]2(C(F)F)C[C@@H]12` [Example 695, N-(3-((1S,5S,6S)-3-amino-1-(difluoromethyl)-5-methyl-2-thia-4-azabicyclo[4.1.0]hept-3-en-5-yl)-4,5-difluorophenyl)-5-(2,2,2-trifluoroethoxy)-2-pyridinecarboxamide], the half-inhibitory concentration (IC50) on human recombinant BACE1 is 0.00272 µM; on human recombinant BACE2, 0.263 µM; in assay [1] it was 0.0883 µM; at Recombinant Cat D, greater than 400 µM.

For the compound `C[C@]1(c2cc(NC(=O)c3ccc(OCC(F)(F)F)cn3)ccc2F)N=C(N)S[C@@]2(C(F)F)C[C@@H]12` [Example 696, N-(3-((1S,5S,6S)-3-amino-1-(difluoromethyl)-5-methyl-2-thia-4-azabicyclo[4.1.0]hept-3-en-5-yl)-4-fluorophenyl)-5-(2,2,2-trifluoroethoxy)-2-pyridinecarboxamide], the concentration for half-maximal inhibition (IC50) on human recombinant BACE1 was 0.0062 µM; on human recombinant BACE2, 0.324 µM; in assay [1] it was 0.0707 µM; on Recombinant Cat D it was 846 µM.

Turning to `C[C@]1(c2cc(NC(=O)c3ccc(OCC(F)(F)F)cn3)cc(F)c2F)N=C(N)S[C@@]2(C(=O)N3CCCC3)C[C@H]21` [Example 699, N-(3-((1S,5S,6S)-3-amino-5-methyl-1-(1-pyrrolidinylcarbonyl)-2-thia-4-azabicyclo[4.1.0]hept-3-en-5-yl)-4,5-difluorophenyl)-5-(2,2,2-trifluoroethoxy)-2-pyridinecarboxamide], the IC50 at human recombinant BACE1 worked out at 0.00106 µM; on human recombinant BACE2 it was 0.0524 µM; in assay [1], 0.0352 µM; on Recombinant Cat D it was 138 µM.
